Like-named read-outs stand apart in the source and are kept apart here.
Tests used:
[1] = tested on: naïve CD4+ T cells co-cultured with B16F1 cells; experiment: FoxP3+ Treg cell differentiation in B16F1-T cell co-culture (flow cytometry); assay type: cell-based, mouse; details: for FoxP3+ Treg cell differentiation (in words): Con A, 48 h
Method: (§1) The main bioassays performed in the study, including HeLa cell-based IDO1/kynurenine assay, Western blot analysis, T cell proliferation and Treg cell differentiation experiments, were carried out as described previously.
Besides causing local tryptophan depletion, high IDO1 expression can also accumulate metabolites of kynurenine pathway. The elevated metabolites can not only induce effector T cell death directly through their cytotoxicity, but also promote the differentiation of naïve CD4^+ T cells into CD4^+ FoxP3^+ Treg cells by activating the AHR pathway. As a highly immunosuppressive subset of CD4^+ T cells, FoxP3^+ Treg cells are critical to the maintenance of immune homeostasis and are involved in tumour immune escape, thereby contributing to tumour development and progression. Therefore, we also utilised co-culture of B16F1 cells with naïve CD4^+ T cells to test whether the synthesised compounds could suppress IDO1 mediated Treg cell differentiation.
Figure 5. Compounds 5d and 8 g inhibited Treg cell differentiation in the cell co-culture system. (A) After co-cultured with B16F1 cells, T cells were collected. Surface staining was performed with CD4^+ FTTC and CD25^+ PE for 30 min at 4 °C. The cells were fixed and permeabilized with fixation buffer and permeabilization wash buffer. The intracellular staining was performed with FoxP3^+ APC for 20 min. The cells were then analysed by flow cytometry analysis. (B) Statistical analysis of result A. Data are represented as ± SEM (n = 3). *p < 0.05, **p < 0.01 vs T + B16F1. TEXT PRINTED IN THE PICTURE: (A) Navoximod: 8.1% (T + B16F1; 1.5 μM) | (A) 8g: 7.8% (T + B16F1; 18 μM) | (A) 5d: 2.1% (T + B16F1; 18 μM)

[2] = tested on: naïve CD4+ T cells co-cultured with B16F1 melanoma cells; experiment: T cell proliferation in B16F1-T cell co-culture (MTT); assay type: cell-based, mouse
Method: as §1
T lymphocytes are exceedingly sensitive to low tryptophan levels. Overactivation of the kynurenine pathway by high IDO1 expression leads to local tryptophan depletion, which can suppress T cell proliferation by activating the GCN2 kinase pathway and eventually result in T cell anergy. Here, to determine whether secondary sulphonamides could rescue IDO1-mediated blockade of T cell proliferation, we used a co-culture of IDO1-expressing B16F1 melanoma cells with naïve CD4^+ T cells to mimic the tumour microenvironment. Given that melanoma is a highly immunogenic tumour and IDO1 constitutively expresses in melanoma cells, B16F1 murine melanoma cell lines that express IDO1 were then used to co-culture with T cells. Naïve CD4^+ T cells were isolated from spleens of C57BL/6 mice.
Figure 4. Compounds 5d and 8 g could promote the proliferation of T cells. Based on the B16F1-T cell co-culture system, use MTT assay to test T cells proliferation. The Navoximod and compounds were added to the system at the concentration of 1.5 and 18 μM. Data represent mean ± SEM (n = 3).

HeLa cells = experiment: HeLa cell viability by MTT at the end of the IDO1/kynurenine assay; assay type: cell-based, human; details: under the experimental conditions of the IDO1 assay
Description: It is well known that IDO1 is broadly expressed in human cancers and is induced by pro-inflammatory cytokines, such as interferon gamma (IFN-γ) and tumour necrosis factor alpha (TNF-α)[41]. Here we utilised a human cervical cancer cell line HeLa that endogenously expresses IDO1 upon IFN-γ treatment to evaluate the IDO1 inhibitory activity of the synthesised compounds by measuring kynurenine secreted into the media. This cell-based assay, as a rapid and simple method for determination IDO1/kynurenine, is closely related to the potency of the enzyme assay and has been widely used to identify various IDO1 inhibitors[19]^,[23]^,[29]^,[42]. In addition, cytotoxic compounds can reduce cell viability, which will decrease the IDO1 levels and then lower the conversion of tryptophan to kynurenine. Thus, we also employed this cellular assay to detect false positive IDO1 inhibitors and cytotoxic compounds by measuring HeLa cell viability. Clinical candidate navoximod was used as an assay control.
Furthermore, the viability of HeLa cells was evaluated by the MTT method at the end of the assay.

IDO1 protein expression = experiment: Western blot of IDO1 protein expression in IFN-γ-treated HeLa cells; assay type: cell-based, human; details: HeLa cells, IFN-γ 100 ng/mL 24 h, then compounds at their IC50 concentrations for 24 h
Method: as §1
To exclude the possibility that these secondary sulphonamides inhibit IDO1 activity by down-regulating IDO1 expression, we utilised Western blot to measure the expression of IDO1 protein in HeLa cells treated with different compounds.
Figure 3. […] (B) The greyscale scanning statistical results of A. (C) HeLa cells were incubated with compound 5d (3, 10, 30 μM) for 24 h. (D) The greyscale scanning statistical results of C. (E) HeLa cells were incubated with compound 5d (3, 10, 30 μM) for 48 h. (F) The greyscale scanning statistical results of E. Data are presented as means ± SEM (n = 3).

IDO1 [3] = biological target: T1, IDO1 (Homo sapiens, UniProt P14902); experiment: HeLa cell-based IDO1/kynurenine assay; details: for IC50: HeLa cells, IFN-γ induced IDO1, kynurenine readout; for inhibition at 30 µM: percentage inhibition at 30 μM, IFN-γ-treated HeLa cells, kynurenine in media; for potency increase as compared with the hit BS-1: ratio of HeLa IC50 values
T1 construct: a human cervical cancer cell line HeLa that endogenously expresses IDO1 upon IFN-γ treatment; endogenous in cells; host or cells: HeLa cells treated with human IFN-γ
Method: as §1
It is well known that IDO1 is broadly expressed in human cancers and is induced by pro-inflammatory cytokines, such as interferon gamma (IFN-γ) and tumour necrosis factor alpha (TNF-α)[41]. Here we utilised a human cervical cancer cell line HeLa that endogenously expresses IDO1 upon IFN-γ treatment to evaluate the IDO1 inhibitory activity of the synthesised compounds by measuring kynurenine secreted into the media. […] Thus, we also employed this cellular assay to detect false positive IDO1 inhibitors and cytotoxic compounds by measuring HeLa cell viability. Clinical candidate navoximod was used as an assay control.

CT26 colon carcinoma [4] = experiment: CT26 colon carcinoma xenograft in immunocompetent BALB/c mice (tumour growth, H&E, IHC, TUNEL, spleen FACS); assay type: in vivo; details: CT26 tumour tissue, BALB/c mice, 25 mg/kg i.p
Method: BALB/c mice (6–8 weeks old, 18–22 g) were supplied by Model Animal Research Centre of Nanjing University (Nanjing, China). Mice were maintained under standard specific-pathogen-free (SPF) conditions (21 ± 2 °C and 12-h light: dark cycle). Animal welfare and experimental procedures were carried out strictly in accordance with the Guide for the Care and Use of Laboratory Animals (The Ministry of Science and Technology of China, 2006) and the related ethical regulations of our university. All efforts were made to minimise animals’ suffering and to reduce the number of animals used. Mouse colon cancer cells (CT26) and melanoma cells (B16F1) were cultured and collected by centrifugation (1000 rpm, 5 min) and washed twice with ice-cold PBS. Then cells were diluted to 1 × 10^7/ml and 1 × 10^6 CT26/B16F1 cells (in 0.1 ml PBS) were injected subcutaneously into the right flanks of mice. All mice formed tumours three days after injection. Then mice were randomly distributed into five groups (n = 10/8) according to tumour volumes. 5d ([…], 12.5 mg/kg) were administered (i.g) to each group respectively every day. 5-FU (25 mg/kg) and Cis-platinum (1 mg/kg) were administered (i.p) every three days. Tumour length and tumour width were measured with a Vernier calliper every three days. Tumour volumes were measured and calculated using the equation volume = a × b^2/2, where “a” is the maximal […] and “b” is maximal orthogonal width. After the administration were completed, mice were weighed, euthanized, and tumours were removed and the weight were taken.
(§2) For immunohistochemistry staining, the sections were deparaffinized, rehydrated, and washed in 1% PBS-Tween 20, and then treated with 2% hydrogen peroxide, blocked with 3% goat serum (Life Technology, 16210–064) and incubated for 2 h at room temperature with specific primary antibodies. Then the slides were incubated with streptavidin-HRP (Shanghai Gene Company, GK500705) for 40 min, then stained with DAB (Shanghai Gene Company, GK500705) substrate and counter-stained with haematoxylin. Images were acquired by microscopy (Olympus IX51).
Given that it was the most prominent inhibitor in vitro, we chose compound 5d for further pharmacodynamic evaluation in vivo. Bowel cancer is the third leading cause of cancer in the world, thus we first evaluated the efficacy of compound 5d on the growth of murine CT26 colon carcinoma xenograft model in immunocompetent BALB/c mice. Fluorouracil (5-FU) is one of the most commonly used drugs to different cancers including bowel cancer, and was used as the positive control. The CT26 tumour-bearing mice were treated with 5d (3.125, 6.25, 12.5 mg/kg, i.g, every day) or 5-FU (25 mg/kg, i.p, […]). Tumour volumes were measured every two days for 14 days.
Figure 7. Compound 5d suppressed colon cancer growth in immunocompetent mice. 1 × 10^6 CT26 cells were transplanted subcutaneously into the armpit of the BALB/c mice. Three days after transplantation, mice were randomly allocated to vehicle control or treatment groups (n = 10). Drugs were administered on days 1–14. Tumour volume (A) and mice body weight (B) were recorded. After sacrifice, solid tumours were separated and weighed (C, D). Data represent mean ± SEM, n = 10, *p < 0.05, **p < 0.01 vs vehicle.
In order to further observe morphological changes in tumour tissues after administration of compound 5d, the tumour tissue sections obtained from the BALB/c mice bearing CT26 colorectal tumours were stained with haematoxylin-eosin (H&E) to highlight different tissue structures, such as the nucleus and cytoplasm.
Then, to understand the mechanism of tumour cell death, we detected the level of proliferating cell nuclear antigen (PCNA) protein and tumour cell apoptosis by immunohistochemistry (IHC) and terminal deoxynucleotidyl transferase dUTP nick end labelling (TUNEL) experiments, respectively. […]

CT26 colon carcinoma [5] = experiment: CT26 colon carcinoma xenograft in immunodeficient BALB/c nude mice; assay type: in vivo, mouse; details: BALB/c nude mice, 25 mg/kg i.p, vs vehicle
Method: Eight-week-old male BALB/c nude mice, weighing 18–22 g, were supplied by Model Animal Research Centre of Nanjing University (Nanjing, China). 1 × 10^7/ml and 1 × 10^6 CT26 cells (in 0.1 ml PBS) were injected subcutaneously into the right flanks of mice. After CT26 xenograft BALB/c nude mouse model was established, all mice were randomly divided into three groups (n = 8). 5d (12.5 mg/kg) were administered (i.g) every day and 5-FU (25 mg/kg) awere administered (i.p) every three days. The following experimental procedures were similar to the described above.
as §2
Then, in order to clarify whether the in vivo antitumour efficacy of compound 5d was related to the mouse immune system, we repeated the above experiment in immunodeficient nude mice. Briefly, BALB/c nude mice bearing established CT26 colon carcinoma xenograft were treated with compound 5d and 5-FU for 10 days.
Figure 8. […] 1 × 10^6 CT26 cells were transplanted subcutaneously into the armpit of immunodeficient BALB/c nude mice. Three days after transplantation, mice were randomly allocated to vehicle control or treatment groups (n = 8). Drugs were administered on days 1–9. (A) Tumour volume and mouse body weight (B) were recorded. After sacrifice, solid tumours were separated and weighed (C, D). Data represent mean ± SEM, n = 8, *p < 0.05, **p < 0.01 vs vehicle.
To verify the above conclusions, we further performed H&E and IHC staining on the nude mouse CT26 tumour tissues. […] These findings further supported the above conclusions.

IDO1 [6] = biological target: T1, IDO1; set-up: method as in earlier work; details: HeLa cell assay; earlier series of N-acetyl secondary sulphonamides; cited from earlier work

T1 sequence (P14902 whole entry): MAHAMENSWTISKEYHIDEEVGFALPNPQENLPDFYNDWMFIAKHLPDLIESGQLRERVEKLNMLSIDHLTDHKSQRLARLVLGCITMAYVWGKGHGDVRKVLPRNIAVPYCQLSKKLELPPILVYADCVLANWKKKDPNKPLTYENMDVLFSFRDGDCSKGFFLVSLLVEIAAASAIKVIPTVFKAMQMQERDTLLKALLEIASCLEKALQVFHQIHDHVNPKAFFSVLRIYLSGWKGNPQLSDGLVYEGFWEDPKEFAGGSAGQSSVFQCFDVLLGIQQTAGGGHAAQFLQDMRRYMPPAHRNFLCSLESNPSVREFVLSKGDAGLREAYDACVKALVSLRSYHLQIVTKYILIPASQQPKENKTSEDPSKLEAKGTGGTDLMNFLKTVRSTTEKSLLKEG

Structure (SMILES): O[C@H](C[C@H]1c2c(F)cccc2-c2cncn21)[C@H]1CC[C@H](O)CC1 [Navoximod, (1R,4r)-4-((R)-2-((S)-6-fluoro-5H-imidazo[5,1-a]isoindol-5-yl)-1-hydroxyethyl)cyclohexan-1-ol, reference compound]
- FoxP3+ Treg cells (flow cytometry) ([1]; 1.5 μM): 8.1%
- FoxP3+ Treg cell differentiation (in words) ([1]; 1.5 μM): significantly reduce FoxP3^+ Treg cell differentiation
- T cell proliferation ([2]; 1.5 μM): significant augmentation on T cell activity

Structure (SMILES): C=CC(=O)Nc1ccc(S(=O)(=O)NCc2cccc(Br)c2)cc1 [5l, N-(4-(N-(3-Bromobenzyl)sulfamoyl)phenyl)acrylamide]
- HeLa cell viability (HeLa cells): without affecting the cell viability
- expression of IDO1 protein (IDO1 protein expression): did not influence IDO1 expression
- IC50 (IDO1 [3]): 6.64 µM
- inhibition at 30 µM (IDO1 [3]): 89.1%
- potency increase as compared with the hit BS-1 (IDO1 [3]): 7.4 fold
- melting point: 156 to 158 °C

Structure (SMILES): O=c1[nH]cc(F)c(=O)[nH]1 [5-FU, Fluorouracil, reference compound]
- expression of PCNA protein (IHC) (CT26 colon carcinoma [4]): significantly reduced
- number of tumour cells (H&E staining) (CT26 colon carcinoma [4]): significantly reduced
- tumour cell apoptosis (TUNEL) (CT26 colon carcinoma [4]): apoptosis increased
- tumour growth (CT26 colon carcinoma [5]): significantly suppressed tumour growth

Structure (SMILES): C=CC(=O)Nc1ccc(S(=O)(=O)Nc2ccc(F)c(Cl)c2)cc1 [8g, N-(4-(N-(3-Chloro-4-fluorophenyl)sulfamoyl)phenyl)acrylamide]
- FoxP3+ Treg cells (flow cytometry) ([1]; 18 μM): 7.8%
- FoxP3+ Treg cell differentiation (in words) ([1]; 18 μM): significantly reduce FoxP3^+ Treg cell differentiation
- T cell proliferation ([2]; 18 μM): significant augmentation on T cell activity
- HeLa cell viability (HeLa cells): without affecting the cell viability
- expression of IDO1 protein (IDO1 protein expression): did not influence IDO1 expression
- IC50 (IDO1 [3]): 3.76 µM
- inhibition at 30 µM (IDO1 [3]): 93.2%
- potency increase as compared with the hit BS-1 (IDO1 [3]): 13.1 fold

Structure (SMILES): COc1ccc(CNS(=O)(=O)c2ccc(NC(C)=O)cc2)cc1 [N-(4-(N-(4-methoxybenzyl)sulfamoyl)phenyl)acetamide, reference compound]
- IC50 (IDO1 [6]): 5.88 µM
- potency increase as compared with the hit BS-1 (IDO1 [3]): 8.4 fold

Reference: article PMC7336998, “Discovery of secondary sulphonamides as IDO1 inhibitors with potent antitumour effects in vivo” (Journal of Enzyme Inhibition and Medicinal Chemistry, 2020)
